In patent publication US10450549B2, “Aryloxyphenoxypropionate tolerance in turfrgass species and use of AAD1 as a selectable marker” (Dow AgroSciences, LLC, priority 2004, dated 2019):

Columns and labels:
[1] = test system: Kentucky bluegrass cv Shamrock callus; test: Callus selection conditions with quizalofop and haloxyfop: Kentucky bluegrass; assay type: cell-based
Description: (§1) Selection conditions for creeping bentgrass cv Crenshaw and Kentucky bluegrass cv Shamrock were established using the grass-active herbicides, quizalofop and haloxyfop. Concentrations of quizalofop and haloxyfop ranged from 0 to 300 nM dissolved in defined callus maintenance media for each species. Callus tissue, derived from mature seeds of each species or cultivar, was used in the experiment. In the case of creeping bentgrass cv Crenshaw, calli maintained on CBG-3 medium were transferred to plates of CBG-3 medium containing either haloxyfop or quizalofop at 0, 50, 100, 150, 200, 250, and 300 nM final concentrations. Visual observations (growth of callus and development of necrosis) were made over a period of 1.5 months. For Kentucky bluegrass cv Shamrock and experimental line A98, calli maintained on KBG-2 were transferred to plates of KBG-2 medium containing 0, 50, 100, 150, 200, 250, and 300 nM final concentrations of the herbicides. Visual observations of callus growth and necrosis were made over a 2.5 month period. […] The calli became necrotic at lower concentrations of quizalofop relative to haloxyfop and the response was more rapid. […]

[2] = test system: creeping bentgrass cv Crenshaw callus; test: Callus selection conditions with quizalofop and haloxyfop: creeping bentgrass; assay type: cell-based, Agrostis stolonifera
Description: as §1

[3] = test system: Hi-II corn grown from seed; test: Lethal dose of AOPP herbicides on non-transformed Hi-II corn
[4] = test system: AAD1-transformed T0 ‘Crenshaw’ creeping bentgrass events (pDAB3878, pDAB5042); test: Quizalofop-p-ethyl postemergence on AAD1-transformed T0 Crenshaw creeping bentgrass, visual % injury; assay type: in vivo, Agrostis stolonifera L. var. palustris
Description: After molecular confirmation was utilized to identify transgenic events, a number of transgenic events were tested for herbicide tolerance. Specific isolated transgenic events were selected and maintained vegetatively through division of the crowns and replanting the clonal pieces into fresh growth medium. Clonally propagated plants were maintained by periodic “mowing” of vegetative tissues.
Growth medium was prepared by mixing Promix® and sand in a 2 to 1 ratio. The medium was contained in plastic pots with a surface area of 84.6 square centimeters (cm^2). When required to maintain plant health, a fungicide, insecticide, and/or other chemical or physical treatment was applied to stock plants. The plants were maintained in a greenhouse with an approximate 14 hour photoperiod which was maintained at 24-27° C. during the day and 22-25° C. during the night. Nutrients (Peters Excel® 15-5-15 5-Ca 2-Mg and iron chelate) were applied in the irrigation solution as needed, and water was added on a regular basis. Supplemental lighting was provided with overhead metal halide 1000-Watt lamps when photosynthetically active radiation (PAR) dropped below 500.
(§2) Selected T0 plants were sprayed with quizalofop-p-ethyl (Assure II®, DUPONT, Wilmington, Del.) at rates ranging from 60 to 2,240 g ae/ha. […] This rate also controls susceptible monocot weed species. Measured amounts were placed individually in 25 mL glass vials and dissolved in a 4 mL volume of 1.0% (v/v) Agri-Dex® Crop Oil Concentrate (COC) from HELENA CHEMICAL (Collierville, Tenn.). Application solutions were prepared by serial dilution of the highest rate applied. One-half the volume of the highest rate stock solution (2 mL) was transferred to a clean 25 mL vial containing an equal volume of 1% COC and the diluted solution was mixed. Additional dilutions were prepared similarly by removing one-half the volume of the previous concentration (2 mL), and adding to an equal volume of 1% COC and mixing. When preparing the lowest concentration, the remaining one-half volume was discarded. All 2 mL stock solutions were further diluted by adding 10 mL aqueous mixture of 1.0% (v/v) COC, so that the final spray solutions were 12 mL in volume and contained 1.0% (v/v) COC.
(§3) Spray solutions were applied to the plant material with an overhead Mandel™ track sprayer equipped with a 8002E nozzles calibrated to deliver 187 L/ha over an application area of 0.503 square meters (m^2) at a spray height of 18 inches (46 cm) above average plant canopy height. Control plants were sprayed in the same manner with the COC blank.
(§4) The treated plants and control plants were placed in a greenhouse, and watered by sub-irrigation to prevent wash-off of the test compounds. At various times after application, the condition of the test plants as compared with that of the untreated plants was determined visually and scored on a scale of 0 to 100 percent (where 0 corresponds to no injury or growth inhibition and 100 corresponds to complete kill). Regenerated, non-transformed (NT) ‘Crenshaw’ or elite line 2905-2 creeping bentgrass plants and/or seed-derived clonally propagated plants served as quizalofop sensitive controls.

[5] = test system: non-transformed (NT) and seed-derived (WT) creeping bentgrass; test: Quizalofop-p-ethyl postemergence on non-transformed / seed-derived creeping bentgrass controls; assay type: in vivo, Agrostis stolonifera L. var. palustris
Description: as §2, §3, §4

`CC(Oc1ccc(Oc2ncc(C(F)(F)F)cc2Cl)cc1)C(=O)O` (stereo not drawn) [haloxyfop] was tested, and the “concentration needed to kill all calli” value [1] was 300 nM, the “concentration sufficient to kill callus within six weeks” value [2] was 250 nM and the lethal dose ([3]; Gallant super + 1% COC (v/v)) was 8.8 g ae/ha). For the same molecule, the “rate that effectively kills (>95% injury) three to four leaf Hi-II corn” value ([3]; postemergence, commercial formulations) was 8.8 g ae/ha.
With `CCOC(=O)[C@@H](C)Oc1ccc(Oc2cnc3cc(Cl)ccc3n2)cc1` [quizalofop-p-ethyl] the “injury of events CBG12 and CBG23” value ([4]; 120 g ae/ha) was “uninjured”, the “injury of events CBG12 and CBG23” value ([4]; 480 g ae/ha) was “less than 10%” and the “Mean % Injury (SE)” value ([4]; event CBG2, 120 g ae/ha, 11 DAA) was 30 (0) %. The “Mean % Injury (SE)” value ([4]; event CBG2, 120 g ae/ha, 14 DAA) was 30 (0) %, the “Mean % Injury (SE)” value ([4]; event CBG2, 120 g ae/ha, 20 DAA) was 25 (0) % and the “Mean % Injury (SE)” value ([4]; event CBG2, 480 g ae/ha, 11 DAA) was 45%. The “Mean % Injury (SE)” value ([4]; event CBG2, 480 g ae/ha, 14 DAA) was 45%, the “Mean % Injury (SE)” value ([4]; event CBG2, 480 g ae/ha, 20 DAA) was 40% and the “Mean % Injury (SE)” value ([4]; event CBG4, 120 g ae/ha, 11 DAA) was 70 (0) %. For the same molecule, the “Mean % Injury (SE)” value ([4]; event CBG4, 120 g ae/ha, 14 DAA) was 85 (0) %, the “Mean % Injury (SE)” value ([4]; event CBG4, 120 g ae/ha, 20 DAA) was 90 (3) % and the “Mean % Injury (SE)” value ([4]; event CBG5, 120 g ae/ha, 11 DAA) was 32 (6) %. The “Mean % Injury (SE)” value ([4]; event CBG5, 120 g ae/ha, 14 DAA) was 42 (8) %, the “Mean % Injury (SE)” value ([4]; event CBG5, 120 g ae/ha, 20 DAA) was 23 (7) % and the “Mean % Injury (SE)” value ([4]; event CBG5, 480 g ae/ha, 11 DAA) was 30 (5) %. For the same molecule, the “Mean % Injury (SE)” value ([4]; event CBG5, 480 g ae/ha, 14 DAA) was 30 (5) %, the “Mean % Injury (SE)” value ([4]; event CBG5, 480 g ae/ha, 20 DAA) was 10 (0) % and the “Mean % Injury (SE)” value ([4]; event CBG12, 120 g ae/ha, 11 DAA) was 0 (0) %. The “Mean % Injury (SE)” value ([4]; event CBG12, 120 g ae/ha, 14 DAA) was 0 (0) %, the “Mean % Injury (SE)” value ([4]; event CBG12, 120 g ae/ha, 20 DAA) was 0 (0) % and the “Mean % Injury (SE)” value ([4]; event CBG12, 480 g ae/ha, 11 DAA) was 5 (3) %. For the same molecule, the “Mean % Injury (SE)” value ([4]; event CBG12, 480 g ae/ha, 14 DAA) was 5 (3) %, the “Mean % Injury (SE)” value ([4]; event CBG12, 480 g ae/ha, 20 DAA) was 5 (0) % and the “Mean % Injury (SE)” value ([4]; event CBG14, 120 g ae/ha, 11 DAA) was 15 (5) %. The “Mean % Injury (SE)” value ([4]; event CBG14, 120 g ae/ha, 14 DAA) was 18 (3) %, the “Mean % Injury (SE)” value ([4]; event CBG14, 120 g ae/ha, 20 DAA) was 5 (5) % and the “Mean % Injury (SE)” value ([4]; event CBG14, 480 g ae/ha, 11 DAA) was 30%. For the same molecule, the “Mean % Injury (SE)” value ([4]; event CBG14, 480 g ae/ha, 14 DAA) was 25%, the “Mean % Injury (SE)” value ([4]; event CBG14, 480 g ae/ha, 20 DAA) was 15% and the “Mean % Injury (SE)” value ([4]; event CBG23, 120 g ae/ha, 11 DAA) was 0 (0) %. The “Mean % Injury (SE)” value ([4]; event CBG23, 120 g ae/ha, 14 DAA) was 0 (0) %, the “Mean % Injury (SE)” value ([4]; event CBG23, 120 g ae/ha, 20 DAA) was 0 (0) % and the “Mean % Injury (SE)” value ([4]; event CBG23, 480 g ae/ha, 11 DAA) was 7 (2) %. The “Mean % Injury (SE)” value ([4]; event CBG23, 480 g ae/ha, 14 DAA) was 7 (3) %, the “Mean % Injury (SE)” value ([4]; event CBG23, 480 g ae/ha, 20 DAA) was 0 (0) % and the “Mean % Injury (SE)” value ([4]; event CBG27, 120 g ae/ha, 11 DAA) was 68 (3) %. The “Mean % Injury (SE)” value ([4]; event CBG27, 120 g ae/ha, 14 DAA) was 75 (5) %, the “Mean % Injury (SE)” value ([4]; event CBG27, 120 g ae/ha, 20 DAA) was 75 (5) % and the “Mean % Injury (SE)” value ([4]; event CBG27, 480 g ae/ha, 11 DAA) was 85%. For the same molecule, the “Mean % Injury (SE)” value ([4]; event CBG27, 480 g ae/ha, 14 DAA) was 85%, the “Mean % Injury (SE)” value ([4]; event CBG27, 480 g ae/ha, 20 DAA) was 85% and the “Mean % Injury (SE)” value ([4]; event CBG31, 120 g ae/ha, 11 DAA) was 0%. For the same molecule, the “Mean % Injury (SE)” value ([4]; event CBG31, 120 g ae/ha, 14 DAA) was 5%, the “Mean % Injury (SE)” value ([4]; event CBG31, 120 g ae/ha, 20 DAA) was 0% and the “Mean % Injury (SE)” value ([4]; event CBG32, 120 g ae/ha, 11 DAA) was 5 (0) %. The “Mean % Injury (SE)” value ([4]; event CBG32, 120 g ae/ha, 14 DAA) was 0 (0) %, the “Mean % Injury (SE)” value ([4]; event CBG32, 120 g ae/ha, 20 DAA) was 0 (0) % and the “Mean % Injury (SE)” value ([4]; event CBG32, 480 g ae/ha, 11 DAA) was 20%. The “Mean % Injury (SE)” value ([4]; event CBG32, 480 g ae/ha, 14 DAA) was 20%, the “Mean % Injury (SE)” value ([4]; event CBG32, 480 g ae/ha, 20 DAA) was 5% and the “Mean % Injury (SE)” value ([4]; event CBG33, 120 g ae/ha, 11 DAA) was 8 (3) %. For the same molecule, the “Mean % Injury (SE)” value ([4]; event CBG33, 120 g ae/ha, 14 DAA) was 10 (0) %, the “Mean % Injury (SE)” value ([4]; event CBG33, 120 g ae/ha, 20 DAA) was 5 (0) % and the “Mean % Injury (SE)” value ([4]; event CBG33, 480 g ae/ha, 11 DAA) was 15%. The “Mean % Injury (SE)” value ([4]; event CBG33, 480 g ae/ha, 14 DAA) was 15%, the “Mean % Injury (SE)” value ([4]; event CBG33, 480 g ae/ha, 20 DAA) was 15% and the “Mean % Injury (SE)” value ([4]; event CBG38, 120 g ae/ha, 11 DAA) was 14 (1) %. The “Mean % Injury (SE)” value ([4]; event CBG38, 120 g ae/ha, 14 DAA) was 13 (3) %, the “Mean % Injury (SE)” value ([4]; event CBG38, 120 g ae/ha, 20 DAA) was 6 (1) % and the “Mean % Injury (SE)” value ([4]; event CBG38, 480 g ae/ha, 11 DAA) was 22 (4) %. For the same molecule, the “Mean % Injury (SE)” value ([4]; event CBG38, 480 g ae/ha, 14 DAA) was 22 (4) %, the “Mean % Injury (SE)” value ([4]; event CBG38, 480 g ae/ha, 20 DAA) was 13 (2) % and the “Visual Injury 39 DAA” value ([5]; 240 g ae/ha, regenerated non-transformed control NT1) was 95%. The “injury on non-transformed controls” value ([5]; both rates (120 and 480 g ae/ha)) was no less than 80%, the “Mean % Injury (SE)” value ([5]; non-transformed control NT1, 120 g ae/ha, 11 DAA) was 83 (3) % and the “Mean % Injury (SE)” value ([5]; non-transformed control NT1, 120 g ae/ha, 14 DAA) was 88 (3) %. The “Mean % Injury (SE)” value ([5]; non-transformed control NT1, 120 g ae/ha, 20 DAA) was 90 (0) %, the “Mean % Injury (SE)” value ([5]; non-transformed control NT1, 480 g ae/ha, 11 DAA) was 85 (0) % and the “Mean % Injury (SE)” value ([5]; non-transformed control NT1, 480 g ae/ha, 14 DAA) was 90 (0) %. For the same molecule, the “Mean % Injury (SE)” value ([5]; non-transformed control NT1, 480 g ae/ha, 20 DAA) was 97 (2) %, the “Mean % Injury (SE)” value ([5]; non-transformed control NT2, 120 g ae/ha, 11 DAA) was 80 (0) % and the “Mean % Injury (SE)” value ([5]; non-transformed control NT2, 120 g ae/ha, 14 DAA) was 90 (0) %. The “Mean % Injury (SE)” value ([5]; non-transformed control NT2, 120 g ae/ha, 20 DAA) was 93 (3) %, the “Mean % Injury (SE)” value ([5]; non-transformed control NT2, 480 g ae/ha, 11 DAA) was 90 (0) % and the “Mean % Injury (SE)” value ([5]; non-transformed control NT2, 480 g ae/ha, 14 DAA) was 90 (0) %. The “Mean % Injury (SE)” value ([5]; non-transformed control NT2, 480 g ae/ha, 20 DAA) was 97 (2) % and the “GR90 (herbicide rate which produces 90% injury and/or growth inhibition)” value ([5]; seed grown plants) was “approximately 60 g ae/ha”.
